Measurements: PubChem BioAssay (NCI)
Where “and” joins values, the source holds several entries; their conditions need not be identical. Identical values can stand only once.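 Five compound concentrations were applied to cells in 96-well plates for 48 hours; endpoints were derived by simple linear interpolation of the resulting dose-response curve. The concentration for 50% growth inhibition is given as GI50. TGI denotes the concentration required for complete inhibition of growth.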

Assays:
Assay in all cases: inhibition of tumour cell growth, NCI panel, 48 h
COLO 205 colon = tested on: COLO 205 colon
M14 melanoma = tested on: M14 melanoma
DU-145 prostate = tested on: DU-145 prostate
OVCAR-8 ovarian = tested on: OVCAR-8 ovarian
SK-MEL-2 melanoma = tested on: SK-MEL-2 melanoma
NCI/ADR-RES ovarian = tested on: NCI/ADR-RES ovarian
HOP-92 NSCLC = tested on: HOP-92 NSCLC
HOP-62 NSCLC = tested on: HOP-62 NSCLC
A549 NSCLC = tested on: A549 NSCLC
T-47D breast = tested on: T-47D breast

Structure (SMILES)	TGI (COLO 205 colon)	TGI (M14 melanoma)	TGI (DU-145 prostate)	TGI (OVCAR-8 ovarian)	TGI (SK-MEL-2 melanoma)	TGI (NCI/ADR-RES ovarian)	TGI (HOP-92 NSCLC)	TGI (HOP-62 NSCLC)	TGI (A549 NSCLC)	TGI (T-47D breast)	GI50 (COLO 205 colon)	GI50 (M14 melanoma)	GI50 (DU-145 prostate)	GI50 (OVCAR-8 ovarian)	GI50 (SK-MEL-2 melanoma)	GI50 (NCI/ADR-RES ovarian)	GI50 (HOP-92 NSCLC)	GI50 (HOP-62 NSCLC)	GI50 (A549 NSCLC)	GI50 (T-47D breast)
CC1(C)OC2COC(c3[nH]nc4c(=O)[nH]c(=O)[nH]c34)C2O1 (stereo not drawn)	> 100 µM	> 100 µM	> 100 µM	> 100 µM	> 100 µM	> 100 µM	> 100 µM	> 100 µM	> 100 µM	> 100 µM	–	–	–	–	–	–	–	–	–	–
COC(=O)CCCNC(=O)C(=O)c1c(O)c(O)c(C(C)C)c2cc(C)c(-c3c(C)cc4c(C(C)C)c(O)c(O)c(C(=O)C(=O)NCCCC(=O)OC)c4c3O)c(O)c12	2.03 µM	2.31 µM	3.74 µM	2.5 µM	2.93 µM	16.6 µM	2.13 µM	4.21 µM	4.01 µM	3.06 µM	0.382 µM	0.753 µM	0.556 µM	0.604 µM	0.858 µM	0.834 µM	0.37 µM	0.942 µM	0.255 µM	0.558 µM
COCC(=O)NC/C=C/c1ccc2ncnc(Nc3ccc(Oc4ccc(C)nc4)c(C)c3)c2c1	25.6 µM	31 µM	> 100 µM	92.4 µM	41.7 µM	88.8 µM	36.3 µM	71 µM	> 100 µM	13.6 µM	6 µM	11.4 µM	9.54 µM	15.9 µM	18.5 µM	17.2 µM	6.48 µM	22.4 µM	13.8 µM	1.19 µM
CSC1SCC2C(=O)N(C)C(C(C)C)C(=O)OCC(NC(=O)c3cnc4ccccc4n3)C(=O)NC(C)C(=O)N(C)C1C(=O)N(C)C(C(C)C)C(=O)OCC(NC(=O)c1cnc3ccccc3n1)C(=O)NC(C)C(=O)N2C (stereo not drawn)	–	0.00121 µM and 0.00346 µM	–	–	0.00126 µM	0.222 µM and 1.16 µM and 1.41 µM	–	–	–	–	< 0.001 µM	< 0.001 µM	< 0.001 µM	< 0.001 µM	–	0.0238 µM	< 0.001 µM	< 0.001 µM	< 0.001 µM	< 0.001 µM
COc1ccccc1N1CCN(CCCOc2ccc(C(=O)/C=C3/C(=O)Nc4ccccc43)cc2)CC1	33.2 µM	27 µM	38.1 µM	55.5 µM	> 80.4 µM	40.9 µM	22.2 µM	54.8 µM	> 100 µM	> 73 µM	12.7 µM	11 µM	15 µM	12 µM	5.54 µM	9.53 µM	2.59 µM	16.1 µM	22.1 µM	4.73 µM
O=C(Nc1ccc(-n2ccc3c(NC(=O)c4ccccc4)nccc32)cc1)c1ccc(N2CCOCC2)c(C(F)(F)F)c1	32.4 µM	> 68.2 µM	> 87.6 µM	56.2 µM	15.8 µM	29.9 µM	18.1 µM	23.1 µM	4.15 µM	> 41.1 µM	0.364 µM	0.43 µM	0.105 µM	0.115 µM	0.236 µM	0.198 µM	1.96 µM	1.74 µM	0.0488 µM	2.65 µM
NC(Cc1c[nH]c2cc(F)ccc12)C(=O)O (stereo not drawn)	> 2500 µM	> 2500 µM	> 2500 µM	> 2500 µM	> 2500 µM	> 2500 µM	> 2500 µM	> 2500 µM	> 2500 µM	> 2500 µM	1120 µM	951 µM	903 µM	961 µM	1910 µM	890 µM	> 2500 µM	961 µM	1150 µM	> 2500 µM
C[C@@H]1OC(=O)NN=C1c1ccc(-c2ccc(F)cc2)c(C(F)(F)F)c1	28 µM	21.6 µM	20.7 µM	31.1 µM	13.1 µM	21.2 µM	25.9 µM	26.2 µM	22.8 µM	25.8 µM	11.8 µM	7.14 µM	1.57 µM	12.7 µM	0.141 µM	5.08 µM	11 µM	10.7 µM	8.21 µM	5.26 µM
Cc1ccc(-n2c3c(c4c(CN)c(O)ccc42)CCc2ccccc2C3=O)cc1	47 µM	18.9 µM	41.7 µM	38 µM	26.9 µM	28.5 µM	8.11 µM	31.7 µM	35.8 µM	50.1 µM	19.5 µM	5.5 µM	17.7 µM	19.7 µM	12 µM	12.5 µM	2.31 µM	17.2 µM	18.7 µM	22.8 µM
CC(=Nc1ccccc1)C1=C(O)C(Cc2ccc(F)cc2)NC1=O (stereo not drawn)	3.21 µM	> 100 µM	> 100 µM	> 100 µM	> 100 µM	13.8 µM	> 100 µM	> 100 µM	> 100 µM	> 100 µM	0.421 µM	0.435 µM	2.12 µM	2.73 µM	0.423 µM	0.42 µM	0.327 µM	0.959 µM	0.675 µM	0.793 µM
COc1ccc(C[C@H]2NC[C@H](O)[C@H]2OC(C)=O)cc1	0.0256 µM	0.068 µM	0.27 µM	0.0897 µM	0.398 µM	0.369 µM	0.186 µM	0.193 µM	3.48 µM	0.754 µM	–	–	–	–	–	–	–	–	0.0413 µM	–
CN1CCN(c2ccc(-c3cccc(CN4CCOCC4)c3)cc2NC(=O)c2c[nH]c(=O)cc2C(F)(F)F)CC1	> 100 µM	36.9 µM	> 100 µM	> 100 µM	72 µM	> 100 µM	> 100 µM	> 100 µM	> 100 µM	> 100 µM	17.8 µM	17.2 µM	62.5 µM	48.7 µM	27.3 µM	> 100 µM	10.7 µM	> 100 µM	53.5 µM	31.3 µM
N#CC(C(=O)O)C(c1c(Cl)cccc1Cl)C(C#N)C(=O)O (stereo not drawn)	> 100 µM	> 100 µM	> 100 µM	> 100 µM	> 100 µM	> 100 µM	> 100 µM	> 100 µM	> 100 µM	> 100 µM	–	–	–	–	–	–	–	–	–	–
